Measured values published in ChEMBL document CHEMBL1777813, “Discovery of novel tetracyclic compounds as anaplastic lymphoma kinase inhibitors” (Bioorg Med Chem Lett, 2011).
Calls of active or inactive are those of the source. The rule behind the calls is not given here.

Experiments:
KARPAS-299 [1] = test: cells; details: Homo sapiens, KARPAS-299, 96 h
[2] = Clearance in mouse liver microsomes at 1 uM after 30 mins in presence of NADPH; assay type: ADME, Microsome
[3] = target: ALK tyrosine kinase receptor (Homo sapiens, UniProt Q9UM73)
[4] = Clearance in human liver microsomes at 1 uM after 30 mins in presence of NADPH; assay type: ADME, Microsome
[5] = target: T1, Protein kinase C beta type (Homo sapiens, UniProt P05771); test: Inhibition of PKCbeta1 assessed as FLC-SIYRRGSRRWRKL peptide phosphorylation by fluorescence polarization assay
[6] = target: Protein kinase C alpha type (Homo sapiens, UniProt P17252); test: Inhibition of PKCalpha assessed as FLC-SIYRRGSRRWRKL peptide phosphorylation by fluorescence polarization assay
[7] = target: Insulin-like growth factor 1 receptor (Homo sapiens, UniProt P08069); test: Inhibition of IGF1R assessed as biotin-EGPWLEEEEEAYGWMDF peptide phosphorylation by TR-FRET assay
Mus musculus [8] = test: Toxicity in human KARPAS299 cells expressing NPM-ALK xenografted SCID mouse administered as change in body weight at 6 to 60 mg/kg, po qd for 11 days; assay type: organism-based, KARPAS-299; parameters: dose 6-60 mg/kg, route oral; details: in vivo, 264 h
[9] = target: Tyrosine-protein kinase ABL1 (Homo sapiens, UniProt P00519); test: Inhibition of Abl assessed as biotin-EGPWLEEEEEAYGWMDF peptide phosphorylation by TR-FRET assay
NCI-H2228 [10] = test: Antitumor activity against human NCI-H2228 cells expressing EML4-ALK xenografted in SCID mouse assessed as tumor regression at 0.2 to 20 mg/kg, po qd for 11 days; assay type: functional, organism-based
[11] = target: RAC-alpha serine/threonine-protein kinase (Homo sapiens, UniProt P31749); test: Inhibition of AKT1 assessed as FI-H1-peptide phosphorylation by fluorescence polarization assay
[12] = target: Mast/stem cell growth factor receptor Kit (Homo sapiens, UniProt P10721); test: Inhibition of Kit assessed as biotin-HEQEDEPEGDYFEWLEPE peptide phosphorylation by TR-FRET assay
[13] = target: T1, Protein kinase C beta type; test: Inhibition of PKCbeta2 assessed as FLC-SIYRRGSRRWRKL peptide phosphorylation by fluorescence polarization assay
[14] = target: Receptor tyrosine-protein kinase erbB-2 (Homo sapiens, UniProt P04626); test: Inhibition of HER2 assessed as biotin-HEQEDEPEGDYFEWLEPE peptide phosphorylation by TR-FRET assay
[15] = target: Epidermal growth factor receptor (Homo sapiens, UniProt P00533); test: Inhibition of EGFR assessed as biotin-EGPWLEEEEEAYGWMDF peptide phosphorylation by TR-FRET assay
[16] = target: Vascular endothelial growth factor receptor 2 (Homo sapiens, UniProt P35968); test: Inhibition of KDR assessed as biotin-EGPWLEEEEEAYGWMDF peptide phosphorylation by TR-FRET assay
KARPAS-299 [17] = test: Antitumor activity against human KARPAS299 cells expressing NPM-ALK xenografted in SCID mouse assessed as reduction of tumor volume administered as po qd for 11 days; assay type: functional, organism-based
KARPAS-299 [18] = test: Antitumor activity against human KARPAS299 cells expressing NPM-ALK xenografted in SCID mouse assessed as tumor regression at 6 to 60 mg/kg, po qd for 11 days; assay type: functional, organism-based
Mus musculus [19] = test: Toxicity in human NCI-H2228 cells expressing EML4-ALK xenografted SCID mouse administered as change in body weight at 0.2 to 20 mg/kg, po qd for 11 days; assay type: organism-based; parameters: dose 0.2-20 mg/kg, route oral; details: in vivo, 264 h
NCI-H2228 [20] = test: Antitumor activity against human NCI-H2228 cells expressing EML4-ALK xenografted in SCID mouse assessed as reduction of tumor volume administered as po qd for 11 days; assay type: functional, organism-based
[21] = target: Fibroblast growth factor receptor 2 (Homo sapiens, UniProt P21802); test: Inhibition of FGFR2 assessed as biotin-EGPWLEEEEEAYGWMDF peptide phosphorylation by TR-FRET assay
Aurora kinase A = target: T2, Aurora kinase A (Homo sapiens, UniProt O14965); test: Inhibition of aurora A assessed as FLC-LRRASLG peptide phosphorylation by fluorescence polarization assay
T2 sequence (O14965 whole entry): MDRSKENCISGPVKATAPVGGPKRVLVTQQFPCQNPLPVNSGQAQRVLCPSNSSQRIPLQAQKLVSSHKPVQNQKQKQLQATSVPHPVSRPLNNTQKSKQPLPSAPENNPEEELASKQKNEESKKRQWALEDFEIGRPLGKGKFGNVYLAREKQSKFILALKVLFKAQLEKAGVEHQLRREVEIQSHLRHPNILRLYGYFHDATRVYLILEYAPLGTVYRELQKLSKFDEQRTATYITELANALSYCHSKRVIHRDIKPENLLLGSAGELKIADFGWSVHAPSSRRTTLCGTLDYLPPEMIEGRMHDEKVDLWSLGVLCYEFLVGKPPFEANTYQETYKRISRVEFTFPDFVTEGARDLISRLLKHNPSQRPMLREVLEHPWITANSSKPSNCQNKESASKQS

[22] = target: RAF proto-oncogene serine/threonine-protein kinase (Homo sapiens, UniProt P04049); test: Inhibition of Raf1 assessed as MEK1/2 phosphorylation by fluorescence polarization assay
[23] = target: Proto-oncogene tyrosine-protein kinase Src (Homo sapiens, UniProt P12931); test: Inhibition of Src assessed as biotin-EGPWLEEEEEAYGWMDF peptide phosphorylation by TR-FRET assay

Sequence of ALK tyrosine kinase receptor (Q9UM73 whole entry): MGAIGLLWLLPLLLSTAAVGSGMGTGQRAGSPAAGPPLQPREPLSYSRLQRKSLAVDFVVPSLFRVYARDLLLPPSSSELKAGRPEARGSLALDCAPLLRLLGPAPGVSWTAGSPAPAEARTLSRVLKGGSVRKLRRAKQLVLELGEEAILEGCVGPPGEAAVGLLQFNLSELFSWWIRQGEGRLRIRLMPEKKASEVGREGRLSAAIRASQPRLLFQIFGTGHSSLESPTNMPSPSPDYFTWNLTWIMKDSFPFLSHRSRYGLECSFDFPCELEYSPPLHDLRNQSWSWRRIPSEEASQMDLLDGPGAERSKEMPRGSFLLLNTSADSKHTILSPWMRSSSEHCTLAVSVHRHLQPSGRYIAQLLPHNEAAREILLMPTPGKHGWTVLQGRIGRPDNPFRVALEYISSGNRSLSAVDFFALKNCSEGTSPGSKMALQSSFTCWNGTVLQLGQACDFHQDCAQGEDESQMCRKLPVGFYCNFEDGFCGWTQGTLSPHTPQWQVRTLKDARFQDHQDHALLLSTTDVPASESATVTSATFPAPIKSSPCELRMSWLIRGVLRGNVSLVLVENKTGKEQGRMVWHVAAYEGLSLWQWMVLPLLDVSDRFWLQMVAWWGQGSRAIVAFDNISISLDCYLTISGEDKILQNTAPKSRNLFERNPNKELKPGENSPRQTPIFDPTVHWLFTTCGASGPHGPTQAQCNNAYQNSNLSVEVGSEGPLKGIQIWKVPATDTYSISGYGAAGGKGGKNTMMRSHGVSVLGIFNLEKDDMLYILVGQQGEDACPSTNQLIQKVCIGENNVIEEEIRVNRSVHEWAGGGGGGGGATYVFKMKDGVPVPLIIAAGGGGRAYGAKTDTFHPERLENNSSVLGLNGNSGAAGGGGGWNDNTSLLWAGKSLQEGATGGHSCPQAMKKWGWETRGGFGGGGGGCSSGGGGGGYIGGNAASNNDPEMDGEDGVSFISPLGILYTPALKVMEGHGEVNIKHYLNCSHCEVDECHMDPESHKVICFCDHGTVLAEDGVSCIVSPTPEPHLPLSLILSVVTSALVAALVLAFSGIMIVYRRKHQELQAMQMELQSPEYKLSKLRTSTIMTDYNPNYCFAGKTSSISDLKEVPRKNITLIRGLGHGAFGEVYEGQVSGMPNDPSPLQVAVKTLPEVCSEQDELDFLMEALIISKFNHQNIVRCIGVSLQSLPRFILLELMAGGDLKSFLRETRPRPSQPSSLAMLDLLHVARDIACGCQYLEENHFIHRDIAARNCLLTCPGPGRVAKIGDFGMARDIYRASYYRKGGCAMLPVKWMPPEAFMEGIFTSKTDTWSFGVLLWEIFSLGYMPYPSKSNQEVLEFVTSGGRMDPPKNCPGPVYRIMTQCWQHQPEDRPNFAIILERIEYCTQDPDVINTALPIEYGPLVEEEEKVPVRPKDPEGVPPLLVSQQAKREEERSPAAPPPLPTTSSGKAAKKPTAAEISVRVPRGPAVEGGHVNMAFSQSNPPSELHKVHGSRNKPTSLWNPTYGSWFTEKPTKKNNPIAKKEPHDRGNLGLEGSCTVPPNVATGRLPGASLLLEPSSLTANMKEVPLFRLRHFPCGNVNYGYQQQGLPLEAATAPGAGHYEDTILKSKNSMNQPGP
T1 sequence (P05771 whole entry): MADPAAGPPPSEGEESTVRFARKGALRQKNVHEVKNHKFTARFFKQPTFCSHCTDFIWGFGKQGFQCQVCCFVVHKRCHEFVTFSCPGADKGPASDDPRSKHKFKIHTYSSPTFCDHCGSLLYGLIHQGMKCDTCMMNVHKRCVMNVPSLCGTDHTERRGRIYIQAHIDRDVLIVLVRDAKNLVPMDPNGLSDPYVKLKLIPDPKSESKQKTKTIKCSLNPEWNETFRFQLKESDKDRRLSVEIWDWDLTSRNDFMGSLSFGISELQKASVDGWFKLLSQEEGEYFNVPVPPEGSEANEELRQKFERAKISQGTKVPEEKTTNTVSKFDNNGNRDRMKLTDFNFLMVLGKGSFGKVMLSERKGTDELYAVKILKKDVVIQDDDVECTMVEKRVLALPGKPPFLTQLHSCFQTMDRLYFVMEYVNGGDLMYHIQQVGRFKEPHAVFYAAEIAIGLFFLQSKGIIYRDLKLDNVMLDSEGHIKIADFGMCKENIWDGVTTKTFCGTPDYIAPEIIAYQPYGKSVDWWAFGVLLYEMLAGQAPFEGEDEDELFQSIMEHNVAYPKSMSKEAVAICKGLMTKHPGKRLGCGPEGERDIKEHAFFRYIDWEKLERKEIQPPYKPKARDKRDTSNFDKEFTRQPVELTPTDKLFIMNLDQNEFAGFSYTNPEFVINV
Sequence of Insulin-like growth factor 1 receptor (P08069 31-736 limits assumed): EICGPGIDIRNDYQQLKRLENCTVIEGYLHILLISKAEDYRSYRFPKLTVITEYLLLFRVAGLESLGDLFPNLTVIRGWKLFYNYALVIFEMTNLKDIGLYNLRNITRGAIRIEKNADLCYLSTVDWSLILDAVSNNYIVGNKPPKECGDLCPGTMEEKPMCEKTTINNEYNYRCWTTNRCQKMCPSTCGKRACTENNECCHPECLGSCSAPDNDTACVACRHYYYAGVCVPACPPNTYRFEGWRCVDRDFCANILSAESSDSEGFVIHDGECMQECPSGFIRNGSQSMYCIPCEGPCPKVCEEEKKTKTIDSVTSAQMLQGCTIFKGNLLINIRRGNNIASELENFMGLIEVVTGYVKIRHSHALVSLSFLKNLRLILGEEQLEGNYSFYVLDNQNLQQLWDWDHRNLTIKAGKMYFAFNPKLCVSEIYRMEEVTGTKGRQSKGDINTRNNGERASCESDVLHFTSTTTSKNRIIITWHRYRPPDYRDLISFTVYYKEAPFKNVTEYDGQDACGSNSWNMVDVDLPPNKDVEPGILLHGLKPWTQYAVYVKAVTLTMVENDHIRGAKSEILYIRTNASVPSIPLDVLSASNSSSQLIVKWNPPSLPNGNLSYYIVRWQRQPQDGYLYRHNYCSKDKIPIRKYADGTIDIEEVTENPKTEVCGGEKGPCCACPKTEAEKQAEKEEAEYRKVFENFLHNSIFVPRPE
Sequence of Insulin-like growth factor 1 receptor (P08069 741-1367 limits assumed): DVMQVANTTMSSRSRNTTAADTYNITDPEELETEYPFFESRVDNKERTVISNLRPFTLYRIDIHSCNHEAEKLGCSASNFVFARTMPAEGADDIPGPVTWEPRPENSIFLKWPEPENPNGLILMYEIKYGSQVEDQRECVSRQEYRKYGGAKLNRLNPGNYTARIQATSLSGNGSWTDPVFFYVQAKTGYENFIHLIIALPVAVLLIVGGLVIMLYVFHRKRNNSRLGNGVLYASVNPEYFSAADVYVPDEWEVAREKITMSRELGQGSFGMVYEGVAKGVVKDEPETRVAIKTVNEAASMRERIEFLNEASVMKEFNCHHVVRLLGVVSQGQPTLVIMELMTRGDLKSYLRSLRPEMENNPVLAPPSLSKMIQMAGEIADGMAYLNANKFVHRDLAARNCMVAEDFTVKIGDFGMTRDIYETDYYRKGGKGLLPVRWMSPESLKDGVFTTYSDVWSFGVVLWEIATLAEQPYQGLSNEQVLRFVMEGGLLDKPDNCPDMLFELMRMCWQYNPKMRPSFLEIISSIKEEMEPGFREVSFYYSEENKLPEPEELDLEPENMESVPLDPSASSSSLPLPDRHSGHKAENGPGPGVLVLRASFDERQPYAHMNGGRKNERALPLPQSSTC
Sequence of Tyrosine-protein kinase ABL1 (P00519 whole entry): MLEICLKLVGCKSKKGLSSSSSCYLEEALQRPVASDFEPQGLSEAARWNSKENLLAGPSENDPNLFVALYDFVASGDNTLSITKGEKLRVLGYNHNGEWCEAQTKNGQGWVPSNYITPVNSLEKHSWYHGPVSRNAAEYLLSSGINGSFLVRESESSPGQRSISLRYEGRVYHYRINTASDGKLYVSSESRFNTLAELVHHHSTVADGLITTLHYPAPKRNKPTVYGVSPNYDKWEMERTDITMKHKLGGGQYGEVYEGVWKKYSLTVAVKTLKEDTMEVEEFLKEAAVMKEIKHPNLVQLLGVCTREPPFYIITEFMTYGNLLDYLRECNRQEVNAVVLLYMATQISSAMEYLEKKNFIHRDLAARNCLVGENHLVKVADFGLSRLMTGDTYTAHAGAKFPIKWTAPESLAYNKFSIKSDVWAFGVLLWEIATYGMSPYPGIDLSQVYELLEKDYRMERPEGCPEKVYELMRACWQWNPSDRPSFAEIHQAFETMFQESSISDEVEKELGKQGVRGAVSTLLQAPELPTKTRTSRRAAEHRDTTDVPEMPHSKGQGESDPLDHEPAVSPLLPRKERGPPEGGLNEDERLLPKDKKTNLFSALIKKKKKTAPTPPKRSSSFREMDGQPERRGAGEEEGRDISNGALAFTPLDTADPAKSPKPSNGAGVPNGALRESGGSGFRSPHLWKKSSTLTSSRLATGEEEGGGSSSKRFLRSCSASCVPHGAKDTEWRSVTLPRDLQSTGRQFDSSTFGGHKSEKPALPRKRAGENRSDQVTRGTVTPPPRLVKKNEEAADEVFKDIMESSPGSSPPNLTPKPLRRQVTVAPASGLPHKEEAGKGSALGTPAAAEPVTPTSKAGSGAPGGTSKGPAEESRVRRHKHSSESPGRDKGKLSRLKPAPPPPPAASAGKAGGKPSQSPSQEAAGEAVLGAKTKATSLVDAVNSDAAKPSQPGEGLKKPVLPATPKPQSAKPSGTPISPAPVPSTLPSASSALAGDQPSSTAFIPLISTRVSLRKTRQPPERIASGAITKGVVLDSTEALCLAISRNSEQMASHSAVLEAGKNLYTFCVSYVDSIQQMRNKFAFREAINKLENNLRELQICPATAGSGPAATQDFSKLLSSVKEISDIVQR

| SMILES | IC50 (KARPAS-299 [1]) | microsomal CLint at 1 µM [2] | IC50 [3] | microsomal CLint at 1 µM [4] | also measured |
| --- | --- | --- | --- | --- | --- |
| CC1(C)c2cc(N3CCN(C4COC4)CC3)ccc2C(=O)c2c1[nH]c1cc(C#N)ccc21 | 47.9 nM | 15.1 µL/min/mg | 27 nM | 9.6 µL/min/mg |  |
| CC(C)N1CCN(c2ccc3c(c2)C(C)(C)c2[nH]c4cc(C#N)ccc4c2C3=O)CC1 |  | 23.1 µL/min/mg |  | 82.7 µL/min/mg |  |
| CC1(C)c2cc(N3CCCCC3)ccc2C(=O)c2c1[nH]c1cc(C#N)ccc21 | 331 nM | 58.9 µL/min/mg | 33.4 nM | 39.5 µL/min/mg |  |
| CC1(C)c2cc(N3CCC(O)CC3)ccc2C(=O)c2c1[nH]c1cc(C#N)ccc21 | 115 nM | 24.6 µL/min/mg | 11.4 nM | 7.1 µL/min/mg |  |
| CC1(C)c2cc(OCCN3CCS(=O)(=O)CC3)ccc2C(=O)c2c1[nH]c1cc(C#N)ccc21 | 87.5 nM | 24.9 µL/min/mg | 3.7 nM | 67 µL/min/mg |  |
| CC1(C)c2cc(N3CCN(S(C)(=O)=O)CC3)ccc2C(=O)c2c1[nH]c1cc(C#N)ccc21 | 263 nM | 15.8 µL/min/mg | 37.4 nM | 19.2 µL/min/mg |  |
| CC1(C)c2cc(N3CCOCC3)ccc2C(=O)c2c1[nH]c1cc(C#N)ccc21 | 134 nM | 8.1 µL/min/mg | 18.5 nM | 33.6 µL/min/mg |  |
| CC1(C)c2cc(C3CCN(C4COC4)CC3)ccc2C(=O)c2c1[nH]c1cc(C#N)ccc21 |  | 10.4 µL/min/mg |  | 10.2 µL/min/mg | IC50 [5]: > 50 µM; IC50 [6]: > 50 µM; IC50 [7]: 1000 nM; Activity (Mus musculus [8]): Non-toxic; IC50 [9]: 370 nM; Activity (NCI-H2228 [10]): Active; IC50 [11]: > 50 µM; IC50 [12]: > 50 µM; IC50 [13]: > 50 µM; IC50 [14]: > 50 µM; IC50 [15]: > 50 µM; IC50 [16]: 100 nM; Activity (KARPAS-299 [17]): Dose-dependent effect; Activity (KARPAS-299 [18]): Active; Activity (Mus musculus [19]): Non-toxic; Activity (NCI-H2228 [20]): Dose-dependent effect; IC50 [21]: 360 nM; IC50 (Aurora kinase A): > 50 µM; IC50 [22]: > 50 µM; IC50 [23]: 250 nM |

Now from value to compound, other results behind:

| IC50 (KARPAS-299 [1]) | microsomal CLint at 1 µM [2] | IC50 [3] | microsomal CLint at 1 µM [4] | SMILES | also measured |
| --- | --- | --- | --- | --- | --- |
| 570 nM |  |  |  | CCN(CC)CCOc1ccc2c(c1)C(C)(C)c1[nH]c3cc([N+](=O)[O-])ccc3c1C2=O |  |
|  |  | 660 nM |  | CCN(CC)CCOc1ccc2c(c1)C(C)(C)c1oc3cc(Cl)ccc3c1C2=O |  |
| 490 nM |  |  |  | CCN(CC)CCOc1ccc2c(c1)C(C)(C)c1[nH]c3cc(Cl)ccc3c1C2=O |  |
| 680 nM |  |  |  | CCN(CC)CCOc1ccc2c(c1)C(C)(C)c1[nH]c3cc(Br)ccc3c1C2=O |  |
| 397 nM | 14.1 µL/min/mg | 11.6 nM | 4.2 µL/min/mg | CC(=O)NCCOc1ccc2c(c1)C(C)(C)c1[nH]c3cc(C#N)ccc3c1C2=O |  |
|  |  | 3470 nM |  | CCN(CC)CCOc1ccc2c(c1)C(C)(C)c1oc3cc(C(F)(F)F)ccc3c1C2=O |  |
|  |  | 2470 nM |  | CCCOc1ccc2c3c(oc2c1)C(C)(C)c1cc(OCCN(CC)CC)ccc1C3=O |  |
|  |  | 770 nM |  | CCN(CC)CCOc1ccc2c(c1)C(C)(C)c1oc3cc(Br)ccc3c1C2=O |  |
| 60 nM | 51.4 µL/min/mg |  | 54.5 µL/min/mg | CCN(CC)CCOc1ccc2c(c1)C(C)(C)c1[nH]c3cc(C#N)ccc3c1C2=O |  |
| 2310 nM | 6.8 µL/min/mg |  | 4 µL/min/mg | CC1(C)c2cc(OCCNC(N)=O)ccc2C(=O)c2c1[nH]c1cc(C#N)ccc21 |  |
